Source: patent US20240208992A1, “MACROCYCLES AS CFTR MODULATORS” (Idorsia Pharmaceuticals Ltd, priority 2021, published 2024)

Biological target: human F508del-CFTR (Homo sapiens, UniProt P13569, DEL508-508)
Test: F508del-CFTR cell surface expression (corrector activity), DiscoveRx ß-galactosidase complementation chemiluminescence assay in recombinant U2OS cell line;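 also: U2OS cells co-expressing ProLink-tagged F508del-CFTR and a membrane-anchored enzyme acceptor, where more surface CFTR restores β-galactosidase activity measured by chemiluminescence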
Conditions: for EC50: EC50, F508del-CFTR cell surface expression, U2OS cells, 16h compound incubation, geomean values; for Emax: U2OS, in relation to Emax of corrector lumacaftor (=100%), arithmetic mean values

Chain of human F508del-CFTR (P13569 with tags, fused parts or gaps DEL508-508): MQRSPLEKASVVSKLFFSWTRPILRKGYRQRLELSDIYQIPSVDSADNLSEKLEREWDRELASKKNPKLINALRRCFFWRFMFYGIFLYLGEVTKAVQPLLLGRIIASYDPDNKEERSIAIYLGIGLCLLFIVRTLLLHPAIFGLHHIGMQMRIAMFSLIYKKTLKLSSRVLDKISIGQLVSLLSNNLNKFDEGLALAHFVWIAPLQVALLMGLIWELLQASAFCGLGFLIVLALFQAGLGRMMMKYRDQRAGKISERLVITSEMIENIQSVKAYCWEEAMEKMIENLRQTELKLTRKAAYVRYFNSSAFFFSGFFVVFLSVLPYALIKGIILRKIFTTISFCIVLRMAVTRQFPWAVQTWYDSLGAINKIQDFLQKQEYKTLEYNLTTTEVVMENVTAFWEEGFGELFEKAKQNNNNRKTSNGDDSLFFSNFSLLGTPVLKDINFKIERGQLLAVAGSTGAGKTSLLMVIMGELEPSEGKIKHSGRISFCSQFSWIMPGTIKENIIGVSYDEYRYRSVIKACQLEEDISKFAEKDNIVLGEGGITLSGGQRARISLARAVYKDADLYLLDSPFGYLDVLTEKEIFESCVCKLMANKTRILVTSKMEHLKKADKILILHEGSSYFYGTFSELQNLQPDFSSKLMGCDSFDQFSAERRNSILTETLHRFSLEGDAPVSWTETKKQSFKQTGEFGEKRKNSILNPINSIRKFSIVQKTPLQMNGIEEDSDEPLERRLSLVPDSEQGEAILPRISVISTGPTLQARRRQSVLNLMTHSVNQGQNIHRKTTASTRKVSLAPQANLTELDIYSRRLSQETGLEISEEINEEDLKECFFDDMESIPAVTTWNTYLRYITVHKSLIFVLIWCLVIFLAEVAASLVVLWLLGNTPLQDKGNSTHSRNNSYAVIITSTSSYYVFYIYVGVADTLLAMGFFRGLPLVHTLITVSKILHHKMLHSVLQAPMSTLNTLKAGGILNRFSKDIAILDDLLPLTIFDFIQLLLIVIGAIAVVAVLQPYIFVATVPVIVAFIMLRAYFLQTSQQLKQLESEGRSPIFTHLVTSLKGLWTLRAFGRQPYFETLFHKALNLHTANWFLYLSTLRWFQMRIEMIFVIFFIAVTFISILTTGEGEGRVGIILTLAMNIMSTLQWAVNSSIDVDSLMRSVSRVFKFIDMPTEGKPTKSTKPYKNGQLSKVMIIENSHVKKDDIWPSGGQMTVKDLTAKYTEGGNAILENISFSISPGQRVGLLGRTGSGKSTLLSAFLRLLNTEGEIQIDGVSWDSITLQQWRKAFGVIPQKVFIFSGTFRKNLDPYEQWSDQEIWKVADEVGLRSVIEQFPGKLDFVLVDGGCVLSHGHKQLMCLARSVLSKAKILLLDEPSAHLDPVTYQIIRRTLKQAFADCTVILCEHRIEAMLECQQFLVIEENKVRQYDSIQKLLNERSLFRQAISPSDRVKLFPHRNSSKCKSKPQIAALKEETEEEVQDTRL

Row | Structure (SMILES) | EC50 | Emax
1 | COc1nccc2c1C(=O)N[C@H](C(=O)NCCc1cc(C)no1)CC(=O)N(C)[C@@H](CC(C)C)C(=O)N1CCN(c3ccccc3)C[C@H]1C(=O)N[C@H](Cc1ccccc1)CO2 [Example 550, (7S,11S,20R,22aS)-20-benzyl-7-isobutyl-14-methoxy-8-methyl-N-(2-(3-methylisoxazol-5-yl)ethyl)-6,9,13,22-tetraoxo-2-phenyl-1,3,4,6,7,8,9,10,11,12,13,19,20,21,22,22a-hexadecahydro-2H-pyrazino[2,1-f]pyrido[3,4-p][1]oxa[4,7,10,14]tetraazacycloheptadecine-11-carboxamide] | 687 nM | 129%
2 | COc1cccc(CCNC(=O)[C@@H]2CC(=O)N(C)[C@@H](CC(C)C)C(=O)N(C)C3(CC3)C(=O)N[C@H](Cc3ccccc3)COc3ccc4cc(C)oc4c3C(=O)N2)c1 [Example 551, (8R,14S,18S)-8-benzyl-14-isobutyl-N-(3-methoxyphenethyl)-2,12,15-trimethyl-10,13,16,20-tetraoxo-7,8,9,10,13,14,15,16,17,18,19,20-dodecahydro-12H-spiro[benzofuro[7,6-p][1]oxa[4,7,10,14]tetraazacycloheptadecine-11,1′-cyclopropane]-18-carboxamide] | 222 nM | 317%
3 | Cc1cc2ccc3c(c2o1)C(=O)N[C@H](C(=O)NCCc1noc(C2CC2)n1)CC(=O)N(C)[C@@H](CC(C)C)C(=O)N(C)C1(CC1)C(=O)N[C@H](Cc1ccccc1)CO3 [Example 553, (8R,14S,18S)-8-benzyl-N-(2-(5-cyclopropyl-1,2,4-oxadiazol-3-yl)ethyl)-14-isobutyl-2,12,15-trimethyl-10,13,16,20-tetraoxo-7,8,9,10,13,14,15,16,17,18,19,20-dodecahydro-12H-spiro[benzofuro[7,6-p][1]oxa[4,7,10,14]tetraazacycloheptadecine-11,1′-cyclopropane]-18-carboxamide] | 287 nM | 304%
4 | COc1cccc(CCNC(=O)[C@@H]2CC(=O)N(C)[C@@H](CC(C)C)C(=O)N(C)C3(CC3)C(=O)N[C@H](Cc3ccccc3)COc3ncc4ccccc4c3C(=O)N2)c1 [Example 555, (3′S,7′S,13′R)-13′-benzyl-7′-isobutyl-N-(3-methoxyphenethyl)-6′,9′-dimethyl-1′,5′,8′,11′-tetraoxo-2′,3′,4′,5′,6′,7′,8′,9′,11′,12′,13′,14′-dodecahydro-1′H-spiro[cyclopropane-1,10′-[1]oxa[4,7,10,14]tetraazacycloheptadecino[17,16-c]isoquinoline]-3′-carboxamide] | 219 nM | 309%
5 | COc1nccc2c1C(=O)N[C@H](C(=O)NCCc1noc(C3CC3)n1)CC(=O)N(C)[C@@H](CC(C)C)C(=O)N(C)[C@@H](CC1CCC(F)(F)CC1)C(=O)N[C@H](Cc1ccccc1)CO2 [Example 557, (3R,6S,9S,13S)-3-benzyl-N-(2-(5-cyclopropyl-1,2,4-oxadiazol-3-yl)ethyl)-6-((4,4-difluorocyclohexyl)methyl)-9-isobutyl-16-methoxy-7,10-dimethyl-5,8,11,15-tetraoxo-2,3,4,5,6,7,8,9,10,11,12,13,14,15-tetradecahydropyrido[3,4-p][1]oxa[4,7,10,14]tetraazacycloheptadecine-13-carboxamide] | 594 nM | 253%
6 | COc1nccc2c1C(=O)N[C@H](C(=O)NCCc1noc(C3CC3)n1)CC(=O)N(C)[C@@H](CC(C)C)C(=O)N(C)[C@H](CC1CCC(F)(F)CC1)C(=O)N[C@H](Cc1ccccc1)CO2 [Example 558, (3R,6R,9S,13S)-3-benzyl-N-(2-(5-cyclopropyl-1,2,4-oxadiazol-3-yl)ethyl)-6-((4,4-difluorocyclohexyl)methyl)-9-isobutyl-16-methoxy-7,10-dimethyl-5,8,11,15-tetraoxo-2,3,4,5,6,7,8,9,10,11,12,13,14,15-tetradecahydropyrido[3,4-p][1]oxa[4,7,10,14]tetraazacycloheptadecine-13-carboxamide] | 167 nM | 355%

Second part, the compound after the results:

Row | EC50 | Emax | Structure (SMILES)
7 | 413 nM | 358% | Cc1cc2ccc3c(c2o1)C(=O)N[C@H](C(=O)NCCc1cc(C2CC2)no1)CC(=O)N(C)[C@@H](CC(C)C)C(=O)N(C)C1(CC1)C(=O)N[C@H](Cc1ccccc1)CO3 [Example 552, (8R,14S,18S)-8-benzyl-N-(2-(3-cyclopropylisoxazol-5-yl)ethyl)-14-isobutyl-2,12,15-trimethyl-10,13,16,20-tetraoxo-7,8,9,10,13,14,15,16,17,18,19,20-dodecahydro-12H-spiro[benzofuro[7,6-p][1]oxa[4,7,10,14]tetraazacycloheptadecine-11,1′-cyclopropane]-18-carboxamide]
8 | 324 nM | 310% | Cc1cc2ccc3c(c2o1)C(=O)N[C@H](C(=O)NCCc1nc(C2CC2)no1)CC(=O)N(C)[C@@H](CC(C)C)C(=O)N(C)C1(CC1)C(=O)N[C@H](Cc1ccccc1)CO3 [Example 554, (8R,14S,18S)-8-benzyl-N-(2-(3-cyclopropyl-1,2,4-oxadiazol-5-yl)ethyl)-14-isobutyl-2,12,15-trimethyl-10,13,16,20-tetraoxo-7,8,9,10,13,14,15,16,17,18,19,20-dodecahydro-12H-spiro[benzofuro[7,6-p][1]oxa[4,7,10,14]tetraazacycloheptadecine-11,1′-cyclopropane]-18-carboxamide]
9 | 327 nM | 322% | CC(C)C[C@H]1C(=O)N(C)C2(CC2)C(=O)N[C@H](Cc2ccccc2)COc2ncc3ccccc3c2C(=O)N[C@H](C(=O)NCCc2cc(C3CC3)no2)CC(=O)N1C [Example 556, (3′S,7′S,13′R)-13′-benzyl-N-(2-(3-cyclopropylisoxazol-5-yl)ethyl)-7′-isobutyl-6′,9′-dimethyl-1′,5′,8′,11′-tetraoxo-2′,3′,4′,5′,6′,7′,8′,9′,11′,12′,13′,14′-dodecahydro-1′H-spiro[cyclopropane-1,10′-[1]oxa[4,7,10,14]tetraazacycloheptadecino[17,16-c]isoquinoline]-3′-carboxamide]
10 | 155 nM | 236% | CC(C)C[C@H]1C(=O)N2CCCC[C@@H]2C(=O)N[C@H](Cc2ccccc2)COc2cnc3ccccc3c2C(=O)N[C@H](C(=O)NCCc2cc(C(F)(F)F)no2)CC(=O)N1C [Example 559, (9S,13S,19aR,22R)-22-benzyl-13-isobutyl-12-methyl-7,11,14,20-tetraoxo-N-(2-(3-(trifluoromethyl)isoxazol-5-yl)ethyl)-7,8,9,10,11,12,13,14,17,18,19,19a,20,21,22,23-hexadecahydro-16H-pyrido[2′,1′:6,7][1]oxa[4,7,10,14]tetraazacycloheptadecino[17,16-c]quinoline-9-carboxamide]
11 | 114 nM | 249% | CC(C)C[C@H]1C(=O)N2CCCC[C@@H]2C(=O)N[C@H](Cc2ccccc2)COc2cnc3ccc(F)cc3c2C(=O)N[C@H](C(=O)NCCc2cc(C(F)(F)F)no2)CC(=O)N1C [Example 560, (9S,13S,19aR,22R)-22-benzyl-5-fluoro-13-isobutyl-12-methyl-7,11,14,20-tetraoxo-N-(2-(3-(trifluoromethyl)isoxazol-5-yl)ethyl)-7,8,9,10,11,12,13,14,17,18,19,19a,20,21,22,23-hexadecahydro-16H-pyrido[2′,1′:6,7][1]oxa[4,7,10,14]tetraazacycloheptadecino[17,16-c]quinoline-9-carboxamide]
